Test results taken from patent publication US10117943B2, “Synthetic antibody mimetic compounds (SYAMS) targeting cancer, especially prostate cancer” (YALE UNIVERSITY, priority 2013, dated 2018).

How the values were obtained:
Format in all cases: cell-based
RM1.PGLS cells [1] = test: Superoxide burst (lucigenin) by primed U937 cells against RM1.PGLS cells; conditions: IFN-γ primed U937 effectors
Text: Since SyAM-P1 was able to induce effector-cell mediated responses against target protein coated beads, the inventors then evaluated if the molecule can elicit the effects against PSMA expressing cells. To that end, the inventors evaluated the SyAM-P1 induced immune responses by primed U937 effector cells against PSMA expressing RM1.PGLS cells. They tested the U937-mediated immune effects by evaluating both superoxide burst and phagocytosis of effector cells, analogous to the protein coated bead experiments. In this experiment, IFN-γ primed U937 cells were incubated with PSMA expressing RM1.PGLS cells, and treated with various concentrations of SyAM-P1. The resulting superoxide burst response was measured using the lucigenin assay (data not shown). Additionally, primed U937 cells (stained with DiD, an FL4 membrane dye) were incubated with target RM1.PGLS cells (stained with […], an FL1 membrane dye), in the presence of various concentrations of SyAM-P 1. The resulting phagocytosis—indicated by FL1 and FL4 double positive cells—was measured using two-color flow-cytometry. As a positive control, ARM-P8 combined with anti-DNP antibodies was utilized. […] The positive response seen with the Arm-P8 control, could potentially be attributed to the ability of antibodies to ligate both FcγRI and FcγRIIA on the immune effector cells, increasing immune signaling and phagocytic responses.

PSMA coated beads [2] = test: Molecule induced phagocytosis of PSMA coated beads by IFN-γ primed U937 cells; conditions: for Observed % Phagocytosis (50 nM SyAM-P2): beads; for phagocytosis of PSMA coated beads (comparison in words): compared with the previous generation SyAM-P
Procedure: (§1) Three days before the experiments, a plate of U937 cells (approximately 60% confluent) was passed into a new Petri dish (10 mL colored RPMI growth media total volume). IFN-γ (20 μL, 100 μg/mL in DPBS) was added, and the cells were maintained in an incubator (37° C., 24 h). The cells were pelleted after 24 hours and resuspended in 10 mL of IFN-γ (20 uL, 100 ug/mL in DPBS) and maintained in an incubator (37° C., 24 h)
For phagocytosis: cells were transferred into a Falcon tube, and DiD (19 uL, final concentration=1.9 μM) was added. The cells were maintained in an incubator (37° C., 30 min), pelleted, aspirated, resuspended in RPMI growth media (10 mL), and split equally into two Petri dishes. To each dish were added additional colored RPMI growth media (5 mL) and IFN-γ (20 μL, 100 μg/mL in DPBS), and maintained in an incubator (37° C., 24 h).
[…] streptavidin fluoresbrite YG microspheres from Polysciences were incubated with 4× concentration of avi-tagged PSMA for 30 minutes at room temperature in DPBS (concentration of avi-tagged PSMA is dependent on biotin loading capacity of microspheres). Beads were washed with DPBS 2× and resuspended in color-free ADCP media at 1.6 million beads/mL.
Phagocytosis: 25 uL of bead solution was added to 25 uL of ADCP media either with or without molecules at various concentrations in an eppendorf tube. To this 50 uL of 4 million/mL primed U937 cells were added, gently mixed and then centrifuged at […] for 2 minutes. The caps were opened and placed in an incubator (37° C., 1 hr) at which point the eppendorfs were closed and placed on ice. Samples were vortexed and run on an Accuri C6 flow cytometer for a total of 50 k counts.
Data analysis: For each experiment 50,000 events were counted. Forward and side scatter plots were optimally gated to remove debris particles and cellular aggregates. On a plot of FL-2 vs FL-4 the following populations were counted: […]

RM1.PGLS cells [3] = test: Phagocytosis of PSMA expressing RM1.PGLS cells by IFN-γ primed U937 cells; conditions: for phagocytosis of RM1.PGLS cells (in words): IFN-γ primed U937 effectors
Procedure: Target cell passing: Three days before the experiments, a plate of target cells, RM1.PGLS cells were passed into a new flask.
Effector cell priming: Three days before the experiments, a plate of U937 cells (approximately 60% confluent) was passed into a new Petri dish (10 mL colored ADCP media total volume). IFN-γ (20 μL, 100 μg/mL in DPBS) was added, and the cells were maintained in an incubator (37° C., 24 h). The cells were transferred into a Falcon tube, and DiD (19 uL, final concentration=1.9 μM) was added. The cells were maintained in an incubator (37° C., 30 min), pelleted, aspirated, resuspended in colored ADCP media (10 mL), and split equally into two Petri dishes. To each dish were added additional colored ADCP media (5 mL) and IFN-γ (20 μL, 100 μg/mL in DPBS), and the cells were maintained in an incubator (37° C., 24 h).
Target cell preparation: To a plate of target cells (60-80% confluent RM1.PGLS cells 10 mL total media volume) was added DiO (20 μL, final concentration=2 μM). The cells were maintained in an incubator (37° C., 30 min), aspirated, and washed with colored ADCP media (3×10 mL). Colored ADCP media (10 mL) was added. The cells were maintained in an incubator (37° C., 2 h), detached and resuspended in color-free ADCP media at a concentration of 0.5 million cells per mL.
Effector cell preparation: Both dishes of primed U937 cells were transferred into a Falcon tube, pelleted, aspirated, resuspended in color-free ADCP media (10 mL), counted, and diluted with color-free ADCP media to give a final concentration of 2 million cells per mL.
Phagocytosis: All conditions were run in triplicate. For each experiment, into a sterile 2 mL Eppendorf tube were added color-free ADCP media (25 μL) containing either various concentrations of SyAM-Px or ARM-P8/Anti-DNP antibody, target cells (25 μL=12,500 cells), and effector cells (50 μL=100,000 cells), to give an effector-to-target ratio of 8:1. Tubes were gently agitated by hand. The cells were pelleted (2 min, 1100 rpm). The tubes were opened, maintained in an incubator (37° C., 1 h), resuspended by briefly agitating with a vortex, and analyzed by flow cytometry.

PSMA coated beads [4] = test: ROS production (superoxide burst, lucigenin) by primed U937 cells against PSMA coated beads
Procedure: as §1
For ROS production cells were resuspended in RPMI growth media (10 mL), and split equally into two Petri dishes. To each dish were added additional colored RPMI growth media (5 mL) and IFN-γ (20 μL, 100 μg/mL in DPBS), and maintained in an incubator (37° C., 24 h)
Primed U937 were suspended in color-free ADCP media at a concentration of 3×10^5 U937 cells and mixed with 10^5 PSMA coated beads and various concentrations of molecules in a 96 well plate in a volume of 90 uL. To each well was added 10 μl of 2.5 mM lucigenin (Tokyo Chemicals) solution to bring the total volume to 100 μl. The plate was centrifuged at 200 rcf for 2 minutes (PLATE SPINNER). The chemiluminescence was then measured at two minute intervals by plate reader (Biotek Synergy 2) for 60 to 90 minutes.

| Structure (SMILES) | superoxide burst against RM1.PGLS cells (in words) (RM1.PGLS cells [1]) | Observed % Phagocytosis (50 nM SyAM-P2) (PSMA coated beads [2]; labeling 2.9 pmol/bead, calculated 1972 PSMA/um^2) [%] | Observed % Phagocytosis (50 nM SyAM-P2) (PSMA coated beads [2]; labeling 5.7 pmol/bead, calculated 3876 PSMA/um^2) [%] | Observed % Phagocytosis (50 nM SyAM-P2) (PSMA coated beads [2]; labeling 8.2 pmol/bead, measured 5577 PSMA/um^2) [%] | phagocytosis of PSMA coated beads (comparison in words) (PSMA coated beads [2]) | phagocytosis of RM1.PGLS cells (in words) (RM1.PGLS cells [3]) | Observed % Phagocytosis (50 nM SyAM-P2) (RM1.PGLS cells [3]; target RM1.PGLS cells, measured 918 PSMA/um^2, 50 nM) [%] | superoxide production without target PSMA+ beads (PSMA coated beads [4]; SyAM-P3 alone, various concentrations) | superoxide burst against PSMA coated beads (comparison in words) (PSMA coated beads [4]; compared with SyAM-P2) | concentration of peak phagocytosis response (RM1.PGLS cells [3]; RM1.PGLS cells) [nM] | phagocytosis of RM1.PGLS cells compared with ArmP8 plus anti-DNP antibody (RM1.PGLS cells [3]; anti-DNP antibody 133 nM, background subtracted) | inhibition of SyAM-P3 induced phagocytosis of PSMA coated beads (PSMA coated beads [2]; 50 nM SyAM-P3, increasing inhibitor concentrations) | effect of inhibitor on SyAM-P1 induced immune effector responses (superoxide burst, phagocytosis of beads) (PSMA coated beads [2]; data not shown) | inhibition of SyAM-P3 induced phagocytosis of RM1.PGLS cells (RM1.PGLS cells [3]; 6.25 nM SyAM-P3, increasing inhibitor concentrations) |
| --- | --- | --- | --- | --- | --- | --- | --- | --- | --- | --- | --- | --- | --- | --- |
| CC(=O)N[C@H](C(=O)N[C@@H](CC(N)=O)C(=O)N[C@@H](CO)C(=O)N[C@H]1CSSC[C@@H](C(=O)NCC(=O)N[C@@H](CC(=O)O)C(=O)N[C@@H](CC(=O)O)C(=O)N[C@@H](C)C(=O)N[C@@H](CCCCNC(=O)CCCCc2cn(-c3cc(C(=O)NCCCCCC(=O)NCCCCCC(=O)NCCCCCC(=O)NCCCCCC(=O)NCCCCCC(=O)NCCCCCC(=O)NCc4cn(CCCC[C@H](NC(=O)N[C@@H](CCC(=O)O)C(=O)O)C(=O)O)nn4)cc(C(=O)NCCCCCC(=O)NCCCCCC(=O)NCCCCCC(=O)NCCCCCC(=O)NCCCCCC(=O)NCCCCCC(=O)NCc4cn(CCCC[C@H](NC(=O)N[C@@H](CCC(=O)O)C(=O)O)C(=O)O)nn4)c3)nn2)C(=O)N[C@@H](CCCCNC(=O)CCCC[C@@H]2SC[C@@H]3NC(=O)N[C@@H]32)C(N)=O)NC(=O)CNC(=O)[C@H](CC(C)C)NC(=O)[C@H](CC(C)C)NC(=O)[C@H](CC(N)=O)NC(=O)[C@@H]2CCCN2C(=O)[C@H](CC(C)C)NC(=O)[C@H](CC(C)C)NC(=O)[C@H](CC(C)C)NC1=O)C(C)C [SyAM-P2] | no response | 10.1 | 24.0 | 46.2 | much higher level of phagocytosis | no response | 0 |  |  |  |  |  |  |  |
| CC(=O)N[C@H](C(=O)N[C@@H](CC(N)=O)C(=O)N[C@@H](CO)C(=O)N[C@H]1CSSC[C@@H](C(=O)NCC(=O)N[C@@H](CC(=O)O)C(=O)N[C@@H](CC(=O)O)C(=O)N[C@@H](CCCCNC(=O)CCCC(=O)NCCOCCOCCOCC(=O)NCCCC[C@H](NC(=O)COCCOCCOCCNC(=O)CCCC(=O)NCCCC[C@H](NC(=O)[C@H](CC(=O)O)NC(=O)[C@H](CC(=O)O)NC(=O)CNC(=O)[C@@H]2CSSC[C@H](NC(=O)[C@H](CO)NC(=O)[C@H](CC(N)=O)NC(=O)[C@@H](NC(C)=O)C(C)C)C(=O)N[C@@H](CC(C)C)C(=O)N[C@@H](CC(C)C)C(=O)N[C@@H](CC(C)C)C(=O)N3CCC[C@H]3C(=O)N[C@@H](CC(N)=O)C(=O)N[C@@H](CC(C)C)C(=O)N[C@@H](CC(C)C)C(=O)NCC(=O)N2)C(=O)N[C@@H](CCCCNC(=O)CCCC[C@@H]2SC[C@@H]3NC(=O)N[C@@H]32)C(N)=O)C(=O)NCc2cn(-c3cc(C(=O)NCCCCCC(=O)NCCCCCC(=O)NCCCCCC(=O)NCCCCCC(=O)NCCCCCC(=O)NCCCCCC(=O)NCc4cn(CCCC[C@H](NC(=O)N[C@@H](CCC(=O)O)C(=O)O)C(=O)O)nn4)cc(C(=O)NCCCCCC(=O)NCCCCCC(=O)NCCCCCC(=O)NCCCCCC(=O)NCCCCCC(=O)NCCCCCC(=O)NCc4cn(CCCC[C@H](NC(=O)N[C@@H](CCC(=O)O)C(=O)O)C(=O)O)nn4)c3)nn2)C(=O)N[C@@H](CCCCNC(=O)CCCC[C@@H]2SC[C@@H]3NC(=O)N[C@@H]32)C(N)=O)NC(=O)CNC(=O)[C@H](CC(C)C)NC(=O)[C@H](CC(C)C)NC(=O)[C@H](CC(N)=O)NC(=O)[C@@H]2CCCN2C(=O)[C@H](CC(C)C)NC(=O)[C@H](CC(C)C)NC(=O)[C@H](CC(C)C)NC1=O)C(C)C [SyAM-P3] | No response |  |  |  | much greater immune response | effectively induce U937-mediated phagocytosis, in a dose dependent manner |  | little to no background superoxide detection | much greater immune response | 10 | phagocytosis at significantly less concentration than for ArmP8 |  |  |  |
| O=C(O)CCC(CP(=O)(O)O)C(=O)O (centres unmarked) [2-PMPA, reference compound] |  |  |  |  |  |  |  |  |  |  |  | inhibition of phagocytosis | abrogated | inhibition of phagocytosis |
